Source: patent US9650340B2, “5-fluoro-N-(pyridin-2-yl)pyridin-2-amine derivatives containing a sulfoximine group” (BAYER PHARMA AKTIENGESELLSCHAFT, priority 2012, dated 2017)
Counter-ions that a name gives are not always drawn. Like-named read-outs stand apart in the source and are kept apart here.

Tests used:
[1] = tested on: DU 145, hormone-independent human prostate carcinoma cells; test: Proliferation assay, DU145 (crystal violet); type: cell-based; settings: DU145, 4 days, read-out: Inhibition of DU145 cell proliferation IC50
Method: (§1) Cultivated tumour cells (HeLa, human cervical tumour cells, ATCC CCL-2; NCI-H460, human non-small cell lung carcinoma cells, ATCC HTB-177; A2780, human ovarian carcinoma cells, ECACC #93112519; DU 145, hormone-independent human prostate carcinoma cells, ATCC HTB-81; HeLa-MaTu-ADR, multidrug-resistant human cervical carcinoma cells, EPO-GmbH Berlin; Caco-2, human colorectal carcinoma cells, ATCC HTB-37; B16F10, mouse melanoma cells, ATCC CRL-6475) were plated at a density of 5,000 cells/well (DU145, HeLa-MaTu-ADR), 3,000 cells/well (NCI-H460, HeLa), 2,500 cells/well (A2780), 1,500 cells/well (Caco-2), or 1,000 cells/well (B16F10) in a 96-well multititer plate in 200 μL of their respective growth medium supplemented 10% fetal calf serum. After 24 hours, the cells of one plate (zero-point plate) were stained with crystal violet (see below), while the medium of the other plates was replaced by fresh culture medium (200 μl), to which the test substances were added in various concentrations (0 μM, as well as in the range of 0.001-10 μM; the final concentration of the solvent dimethyl sulfoxide was 0.5%). The cells were incubated for 4 days in the presence of test substances. Cell proliferation was determined by staining the cells with crystal violet: the cells were fixed by adding 20 μl/measuring point of an 11% glutaric aldehyde solution for 15 minutes at room temperature. After three washing cycles of the fixed cells with water, the plates were dried at room temperature. The cells were stained by adding 100 μl/measuring point of a 0.1% crystal violet solution (pH 3.0). After three washing cycles of the stained cells with water, the plates were dried at room temperature. The dye was dissolved by adding 100 μl/measuring point of a 10% acetic acid solution. The extinction was determined by photometry at a wavelength of 595 nm. The change of cell number, in percent, was calculated by normalization of the measured values to the extinction values of the zero-point plate (=0%) and the extinction of the untreated (0 μm) cells (=100%). The IC50 values (inhibitory concentration at 50% of maximal effect) were determined by means of a 4 parameter fit. Non-adherent MOLM-13 human acute myeloid leukemia cells (DSMZ ACC 554) were seeded at a density of 5,000 cells/well in a 96-well multititer plate in 100 μL of growth medium supplemented 10% fetal calf serum. After 24 hours, cell viability of one plate (zero-point plate) was determined with the Cell Titre-Glo Luminescent Cell Viability Assay (Promega), while 50 μL of test compound containing medium was added to the wells of the other plates (final concentrations in the range of 0.001-10 μM and DMSO controls; the final concentration of the solvent dimethyl sulfoxide was 0.5%). Cell viability was assessed after 72-hour exposure with the Cell Titre-Glo Luminescent Cell Viability Assay (Promega).

[2] = tested on: B16F10, mouse melanoma cells; test: Proliferation assay, B16F10 (crystal violet); type: cell-based; settings: B16F10, 4 days, read-out: Inhibition of B16F10 cell proliferation IC50
Method: as §1

[3] = tested on: HeLa-MaTu-ADR, multidrug-resistant human cervical carcinoma cells; test: Proliferation assay, HeLa-MaTu-ADR (crystal violet); type: cell-based; settings: 4 days, read-out: Inhibition of HeLa-MaTu-ADR cell proliferation IC50
Method: as §1

[4] = tested on: Caco-2, human colorectal carcinoma cells; test: Proliferation assay, Caco-2 (crystal violet); type: cell-based; settings: Caco-2, 4 days, read-out: Inhibition of Caco-2 cell proliferation IC50
Method: as §1

[5] = tested on: HeLa, human cervical tumour cells; test: Proliferation assay, HeLa (crystal violet); type: cell-based; settings: 4 days, read-out: Inhibition of HeLa cell proliferation IC50
Method: as §1

[6] = tested on: NCI-H460, human non-small cell lung carcinoma cells; test: Proliferation assay, NCI-H460 (crystal violet); type: cell-based; settings: NCI-H460, 4 days, read-out: Inhibition of NCI-H460 cell proliferation IC50
Method: as §1

[7] = biological target: T1, CDK9/CycT1 (Homo sapiens, UniProt P50750); test: CDK9/CycT1 high ATP kinase assay (TR-FRET, 2 mM ATP); type: biochemical; settings: Method 1b
T1 construct: Recombinant full-length His-tagged human CDK9 and CycT1; His; purchased Invitrogen PV4131; host or cells: insect cells
T1 sequence (P50750 whole entry): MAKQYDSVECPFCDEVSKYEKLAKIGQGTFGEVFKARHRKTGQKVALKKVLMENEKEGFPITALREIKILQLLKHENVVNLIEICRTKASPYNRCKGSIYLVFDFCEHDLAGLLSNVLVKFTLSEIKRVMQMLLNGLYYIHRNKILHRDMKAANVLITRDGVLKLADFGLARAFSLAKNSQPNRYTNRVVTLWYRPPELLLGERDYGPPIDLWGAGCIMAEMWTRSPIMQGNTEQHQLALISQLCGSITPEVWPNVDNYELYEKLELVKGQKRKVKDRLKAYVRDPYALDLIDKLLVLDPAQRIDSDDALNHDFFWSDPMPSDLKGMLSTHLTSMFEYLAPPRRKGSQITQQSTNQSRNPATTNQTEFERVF
T1 sequence (O60563 whole entry partner): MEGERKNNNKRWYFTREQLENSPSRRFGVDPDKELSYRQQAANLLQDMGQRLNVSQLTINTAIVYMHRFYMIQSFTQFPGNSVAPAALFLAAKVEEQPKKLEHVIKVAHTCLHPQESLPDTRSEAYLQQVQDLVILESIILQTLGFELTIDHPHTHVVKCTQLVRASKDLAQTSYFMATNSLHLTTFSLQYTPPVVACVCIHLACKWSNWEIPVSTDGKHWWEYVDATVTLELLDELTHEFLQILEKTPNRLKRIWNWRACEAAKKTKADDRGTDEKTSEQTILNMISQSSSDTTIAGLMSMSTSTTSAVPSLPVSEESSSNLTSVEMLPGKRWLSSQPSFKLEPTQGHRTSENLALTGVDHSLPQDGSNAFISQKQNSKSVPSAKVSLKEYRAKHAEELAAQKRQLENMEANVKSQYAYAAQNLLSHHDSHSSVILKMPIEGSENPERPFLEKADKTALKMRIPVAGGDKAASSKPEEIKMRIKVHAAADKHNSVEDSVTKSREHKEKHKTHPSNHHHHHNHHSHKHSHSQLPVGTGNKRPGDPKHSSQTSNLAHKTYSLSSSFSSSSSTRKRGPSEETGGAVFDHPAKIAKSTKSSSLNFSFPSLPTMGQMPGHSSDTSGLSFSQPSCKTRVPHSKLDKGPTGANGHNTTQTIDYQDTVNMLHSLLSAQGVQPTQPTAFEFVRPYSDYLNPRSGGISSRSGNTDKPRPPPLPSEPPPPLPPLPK
Method: 1b. CDK9/CyeT1 High ATP Kinase Assay
CDK9/CycT1-inhibitory activity of compounds of the present invention at a high ATP concentration after preincubation of enzyme and test compounds was quantified employing the CDK9/CycT1 TR-FRET assay as described in the following paragraphs.
Recombinant full-length His-tagged human CDK9 and CycT1, expressed in insect cells and purified by Ni-NTA affinity chromatography, were purchase from Invitrogen (Cat. No PV4131). As substrate for the kinase reaction biotinylated peptide biotin-Ttds-[…] (C-terminus in amid form) was used which can be purchased e.g. form the company JERINI peptide technologies (Berlin, Germany). For the assay 50 nl of a 100 fold concentrated solution of the test compound in DMSO was pipetted into a black low volume 384 well microtiter plate (Greiner Bio-One, Frickenhausen, Germany), 2 μl of a solution of CDK9/CycT1 in aqueous assay buffer [50 mM Tris/HCl pH 8.0, 10 mM MgCl2, 1.0 mM dithiothreitol, 0.1 mM sodium ortho-vanadate, 0.01% (v/v) Nonidet-P40 (Sigma)] were added and the mixture was incubated for 15 min at 22° C. to allow pre-binding of the test compounds to the enzyme before the start of the kinase reaction. Then the kinase reaction was started by the addition of 3 μl of a solution of adenosine-tri-phosphate (ATP, 3.3 mM=>final conc. in the 5 μl assay volume is 2 mM) and substrate (1.67 μM=>final conc. in the 5 μl assay volume is 1 μM) in assay buffer and the resulting mixture was incubated for a reaction time of 25 min at 22° C.
The resulting mixture was incubated 1 h at 22° C. to allow the formation of complex between the phosphorylated biotinylated peptide and the detection reagents. Subsequently the amount of phosphorylated substrate was evaluated by measurement of the resonance energy transfer from the Eu-chelate to the streptavidine-XL. Therefore, the fluorescence emissions at 620 nm and 665 nm after excitation at 350 nm was measured in a HTRF reader, e.g. a Rubystar (BMG Labtechnologies, Offenburg, Germany) or a Viewlux (Perkin-Elmer). The ratio of the emissions at 665 nm and at 622 nm was taken as the measure for the amount of phosphorylated substrate.

Compound | IC50 ([1]; Homo sapiens, DU-145, 96 h) [nM] | IC50 ([2]; Mus musculus, B16-F10, 96 h) [nM] | IC50 ([3]; Homo sapiens, 96 h) [nM] | IC50 ([4]; Homo sapiens, Caco-2, 96 h) [nM] | IC50 ([5]; Homo sapiens, 96 h) [nM] | IC50 ([6]; Homo sapiens, NCI-H460, 96 h) [nM] | IC50 [7] [nM] | IC50 [1] [nM] | IC50 [2] [nM] | IC50 [3] [nM] | IC50 [4] [nM] | IC50 [5] [nM] | IC50 [6] [nM]
COc1cc(F)ccc1-c1cc(Nc2cc(CS(C)(=N)=O)ccn2)ncc1F (racemic) [Example 1, (rac)-5-Fluoro-4-(4-fluoro-2-methoxyphenyl)-N-{4-[(S-methylsulfonimidoyl)methyl]pyridin-2-yl}pyridin-2-amine] | 37 | 110 | 61 | 45 | 95 | 62 | – | – | – | – | – | – | –
COc1cc(F)ccc1-c1cc(Nc2cc(CS(C)(=N)=O)cc(C)n2)ncc1F (racemic) [Example 4, (rac)-5-Fluoro-4-(4-fluoro-2-methoxyphenyl)-N-{6-methyl-4-[(S-methylsulfonimidoyl)methyl]pyridin-2-yl}pyridin-2-amine] | 67 | 100 | 34 | 68 | 35 | 97 | 2 | – | – | – | – | – | –
COc1cc(F)ccc1-c1cc(Nc2cc(CS(C)(=N)=O)c(Br)c(C)n2)ncc1F (racemic) [Example 5, (rac)-5-Bromo-N-[5-fluoro-4-(4-fluoro-2-methoxyphenyl)pyridin-2-yl]-6-methyl-4-[(S-methylsulfonimidoyl)methyl]pyridin-2-amine] | 110 | 120 | – | 110 | 93 | 120 | 3 | – | – | – | – | – | –
COc1cc(CS(C)(=N)=O)cc(Nc2cc(-c3ccc(F)cc3OC)c(F)cn2)n1 (racemic) [Example 6, (rac)-5-Fluoro-4-(4-fluoro-2-methoxyphenyl)-N-{6-methoxy-4-[(S-methylsulfonimidoyl)methyl]pyridin-2-yl}pyridin-2-amine] | 30 | 33 | 30 | 31 | 21 | 33 | 1 | – | – | – | – | – | –
COc1cc(F)ccc1-c1cc(Nc2cc(CS(C)(=N)=O)cc(Cl)n2)ncc1F (racemic) [Example 7, (rac)-N-{6-Chloro-4-[(S-methylsulfonimidoyl)methyl]pyridin-2-yl}-5-fluoro-4-(4-fluoro-2-methoxyphenyl)pyridin-2-amine] | 37 | 34 | 32 | 41 | 32 | 47 | 2 | – | – | – | – | – | –
COc1cc(F)ccc1-c1cc(Nc2cc(CS(=N)(=O)CCN)ccn2)ncc1F (racemic) [Example 9, (rac)-N-(4-{[S-(2-Aminoethyl)sulfonimidoyl]methyl}pyridin-2-yl)-5-fluoro-4-(4-fluoro-2-methoxyphenyl)pyridin-2-amine] | – | – | – | – | 410 | – | 6 | – | – | – | – | – | –
COc1cc(F)ccc1-c1cc(Nc2cc(CS(C)(=N)=O)ccn2)ncc1F (single isomer, unassigned; (+)) [Example 2, (+)-5-Fluoro-4-(4-fluoro-2-methoxyphenyl)-N-{4-[(S-methylsulfonimidoyl)methyl]pyridin-2-yl}pyridin-2-amine] | – | – | – | – | – | – | – | 33 | 240 | 33 | 62 | 110 | 75
COc1cc(F)ccc1-c1cc(Nc2cc(CS(C)(=N)=O)ccn2)ncc1F (single isomer, unassigned; (-)) [Example 3, (−)-5-Fluoro-4-(4-fluoro-2-methoxyphenyl)-N-{4-[(S-methylsulfonimidoyl)methyl]pyridin-2-yl}pyridin-2-amine] | – | – | – | – | – | – | – | 37 | 310 | 37 | 58 | 100 | 65

The next lines start with the values.

IC50 ([1]; Homo sapiens, DU-145, 96 h) [nM] | IC50 ([2]; Mus musculus, B16-F10, 96 h) [nM] | IC50 ([3]; Homo sapiens, 96 h) [nM] | IC50 ([4]; Homo sapiens, Caco-2, 96 h) [nM] | IC50 ([5]; Homo sapiens, 96 h) [nM] | IC50 ([6]; Homo sapiens, NCI-H460, 96 h) [nM] | IC50 [7] [nM] | IC50 [1] [nM] | IC50 [2] [nM] | IC50 [3] [nM] | IC50 [4] [nM] | IC50 [5] [nM] | IC50 [6] [nM] | Compound
– | – | – | – | 8 | – | 1 | – | – | – | – | – | – | COc1cc(F)ccc1-c1cc(Nc2cc(CS(C)(=N)=O)cc(C(F)F)n2)ncc1F (racemic) [Example 31, (rac)-N-{6-(Difluoromethyl)-4-[(S-methylsulfonimidoyl)methyl]pyridin-2-yl}-5-fluoro-4-(4-fluoro-2-methoxyphenyl)pyridin-2-amine]
58 | 95 | 64 | – | – | 110 | 19 | – | – | – | – | – | – | COc1cc(F)ccc1-c1cc(Nc2cc(CS(C)(=N)=O)cc(F)n2)ncc1F (single isomer, unassigned; (+)) [Example 19, (+)-5-Fluoro-4-(4-fluoro-2-methoxyphenyl)-N-{6-fluoro-4-[(S-methylsulfonimidoyl)methyl]pyridin-2-yl}pyridin-2-amine]
– | – | – | – | – | – | – | 120 | 150 | 110 | 120 | 63 | 130 | COc1cc(F)ccc1-c1cc(Nc2cc(CS(C)(=N)=O)ccn2)ncc1F (single isomer, unassigned; enantiomer 1) [Example 16, 5-Fluoro-4-(4-fluoro-2-methoxyphenyl)-N-{4-[(S-methylsulfonimidoyl)methyl]pyridin-2-yl}pyridin-2-amine hydrochloride; enantiomer 1]
– | – | – | – | – | – | – | 33 | 73 | 46 | 37 | 42 | 30 | COc1cc(F)ccc1-c1cc(Nc2cc(CS(C)(=N)=O)ccn2)ncc1F.Cl (single isomer, unassigned; enantiomer 2) [Example 14, 5-Fluoro-4-(4-fluoro-2-methoxyphenyl)-N-{4-[(S-methylsulfonimidoyl)methyl]pyridin-2-yl}pyridin-2-amine hydrochloride; enantiomer 2]
